The text below walks through data of patent US20120220548A1, “Compositions and methods for treatment of virus-associated cancer cells” (priority 2011, published 2012).

Test [1] concerns BCBL-1 primary effusion lymphoma (PEL) cells. Description: rapamycin cell killing of BCBL-1 PEL cells in culture with or without oHA (relative cell viability). In kind it is cell-based, human.
Method: The cells used are the PEL strain known as body cavity-based lymphoma-1 (BCBL-l; diamonds and squares). The squares indicate data from cells to which oHA was added along with rapamycin.
Cell viability was assessed using both MTT and Trypan blue exclusion assays as described in Qin Z, et al. PLoS Pathog 2010; 6(1): e1000742. For MTT assays, a total of 5×10^3 PEL cells were incubated individual wells of a 96-well plate for 24 hours. Serial dilutions of paclitaxel, doxorubicin or oHAs were added and subsequently incubated in 1 mg/ml MTT solution (Sigma-Aldrich) at 37° C. for 3 hours. Thereafter, cells were incubated in 50% dimethylsulfoxide overnight and optical densities determined at 570 nm using a spectrophotometer (Thermo Labsystems, West Palm Beach, Fla., USA). For Trypan blue exclusion assays, cells were incubated with 0.4% Trypan blue (MP Biomedicals, Northbrook, Ill., USA) and observed under light microscopy. Relative cell viability was determined after assessment of at least 1000 cells per condition for each experiment using the following formula: (no. of live cells/no. of total cells for experimental conditions)/ (no. of live cells/no. of total cells for vehicle-treated control cells). […]
The test system of the next test is BCBL-1 cells. To be noted: 3 weeks. The protocol:
Mice were injected with 2×10^7 BCBL-1 cells and were weighed as a function of time every week for 3 weeks, to assess tumor growth. […] The weight is shown on the ordinate and time in days on the abscissa.
Mice were injected with 2×10^7 BCBL-1 cells (a strain of PEL cells) and were weighed as a function of time every week for three weeks, to assess tumor growth. Weight was compared to control mice not receiving BCBL-1 cells.

Where [2] appears, read: doxorubicin 0.2 mg/kg intraperitoneally.

Turning to `CO[C@H]1C[C@@H]2CC[C@@H](C)[C@@](O)(O2)C(=O)C(=O)N2CCCC[C@H]2C(=O)O[C@H]([C@H](C)C[C@@H]2CC[C@@H](O)[C@H](OC)C2)CC(=O)[C@H](C)/C=C(\C)[C@@H](O)[C@@H](OC)C(=O)[C@H](C)C[C@H](C)/C=C/C=C/C=C/1C` [rapamycin], the “survival (relative cell viability)” value in test [1] (1 nM rapamycin, this agent alone) is “greater than 0.95”. The IC50 in test [1] (Homo sapiens, BCBL1, read-out: concentration of rapamycin giving cell death of about half the cells, rapamycin alone) is 10 to 20 nM.
In the case of `COc1cccc2c1C(=O)c1c(O)c3c(c(O)c1C2=O)C[C@@](O)(C(=O)CO)C[C@@H]3O[C@H]1C[C@H](N)[C@H](O)[C@H](C)O1` [doxorubicin], the “effect on progress of lymphoma (weight gain)” value in the test with BCBL-1 cells (doxorubicin 0.2 mg/kg i.p., oHA 0.5 mg/kg i.p.) is reported as “only slightly reduced the increase in weight”. Besides, in the test with BCBL-1 cells (setting [2]), the tumor-associated weight gain fell in the range of 4 to 7 g and the “tumor-associated weight gain from baseline weight of 25-28g” value was “approximately 35%”.
